Among the data in ChEMBL document CHEMBL3243918, “Synthesis and adrenergic beta-blocking activity of some 1,3-benzodioxole derivatives” (J Med Chem, 1977) are Activity and pA2 values, retold here.

Series [1] is filed under the species Cavia porcellus. Kind of series: Antagonist activity at guinea pig atrial beta adrenergic receptor assessed as isometric contractions at 5 x 10^-5 M by force displacement transducer. It is filed as tissue-based. The settings on record: Cardiac atrium.
For series [2], the system named is Cavia porcellus. Kind of series: Hypotensive activity at guinea pig assessed as decrease in blood pressure at 100 mg/kg, po after 1 hr. It is filed as functional, organism-based. Also on record: dose 100 mg/kg.
The test system of series [3] is Cavia porcellus. Briefly: Hypotensive activity at guinea pig assessed as decrease in blood pressure at 100 mg/kg, po after 3 hrs. Type of series: functional, organism-based. Also noted: dose 100 mg/kg.
Series [4] has as its system Cavia porcellus. Kind of series: Hypotensive activity at guinea pig assessed as decrease in blood pressure at 100 mg/kg, po after 5 hrs. Also noted: dose 100 mg/kg. Type of series: functional, organism-based.
A short description of series [5]: Antagonist activity at guinea pig atrial beta adrenergic receptor assessed as isometric contractions by force displacement transducer. Type of series: tissue-based, Cavia porcellus, Cardiac atrium.
In series [6] the test system is Cavia porcellus. Kind of series: Hypotensive activity at guinea pig assessed as decrease in blood pressure at 50 mg/kg, po after 1 hr (reference value: 112 +/- 2.6 to 122 +/- 2.7 mmHg). It is filed as functional.
Series [7] has as its system Cavia porcellus. Briefly: Hypotensive activity at guinea pig assessed as decrease in blood pressure at 50 mg/kg, po after 3 hrs (reference value: 112 +/- 2.6 to 122 +/- 2.7 mmHg). Type of series: functional.
In series [8] the test system is Cavia porcellus. Briefly: Hypotensive activity at guinea pig assessed as decrease in blood pressure at 50 mg/kg, po after 5 hrs (reference value: 112 +/- 2.6 to 122 +/- 2.7 mmHg). It is filed as functional.
Series [9] relates to Cavia porcellus. Briefly: Toxicity in guinea pig assessed as depression in heart beating rate at 50 mg/kg, po relative to control. Also noted: dose 50 mg/kg, route oral. Type of series: organism-based. The following applies: in vivo.
Series [10] has as its system Cavia porcellus. Kind of series: Toxicity in guinea pig assessed as increase in heart beating rate at 50 mg/kg, po. Type of series: organism-based. Also noted: dose 50 mg/kg, route oral. The settings on record: in vivo.

Each structure is given as a SMILES string. Calls of active or inactive are those of the source. No cut-off for these calls is given here. Some results are limits rather than exact numbers.

Take `CC(C)NCC(O)/C=C/c1ccc2c(c1)OCO2` (stereo not given): the outcome in the series filed under Cavia porcellus [1], with Cavia porcellus [2], in the series with Cavia porcellus [3] and in the series on Cavia porcellus [4] was inactive.
Turning to `CC(C)NCC(O)c1ccc(NS(C)(=O)=O)cc1` (stereo not given) [SOTALOL], the pA2 in series [5] is on record as 6.8. Besides, the Activity in the series on Cavia porcellus [6] was determined as 112 mmHg; with Cavia porcellus [7], 108 mmHg; in the series with Cavia porcellus [8], 107 mmHg.
For `N=C(N)NCCc1ccc2c(c1)OCO2`, the outcome in the series listed under Cavia porcellus [1], in the series on Cavia porcellus [2], in the series on Cavia porcellus [3] and in the series on Cavia porcellus [4] was inactive.
In the case of `OC(CNC1=NCCN1)c1ccc2c(c1)OCO2` (stereo not given), the result in the series filed under Cavia porcellus [1], in the series with Cavia porcellus [2], in the series on Cavia porcellus [3] and with Cavia porcellus [4] was inactive.
Consider `CC(C)NCC(O)COc1cccc2ccccc12` (stereo not given) [PROPRANOLOL], for which the results for the Activity with Cavia porcellus [6], in the series on Cavia porcellus [7] and in the series on Cavia porcellus [8] were 141 mmHg, 119 mmHg and 117 mmHg, respectively.
On to `c1cc2c(cc1CCNC1=NCCN1)OCO2`, for which the result in the series filed under Cavia porcellus [1], with Cavia porcellus [2], with Cavia porcellus [3] and in the series on Cavia porcellus [4] was inactive.
For the molecule `CNCC(O)COC(=O)c1ccc2c(c1)OCO2.O=C(O)C(=O)O` (stereo not given), the pA2 in series [5] is 5.3. Also, in the series with Cavia porcellus [9], the Activity is given as less than 10%. In addition, the outcome in the series on Cavia porcellus [2], in the series on Cavia porcellus [3] and in the series with Cavia porcellus [4] was inactive.
As to `CC(C)NC(C)C(O)c1ccc2c(c1)OCO2.Cl` (stereo not given), the outcome in the series filed under Cavia porcellus [1] was inactive. The Activity in the series with Cavia porcellus [9] is reported as less than 10%; with Cavia porcellus [6] it was 92 mmHg; with Cavia porcellus [7], 91 mmHg; with Cavia porcellus [8] it was 94 mmHg.
On to `NNc1nncc2ccccc12`, for which the result in the series filed under Cavia porcellus [1] was inactive.
Turning to `CC(C)(C)NCC(O)c1ccc2c(c1)OCO2.Cl` (stereo not given), the pA2 in series [5] is reported as 6.5. The Activity in the series on Cavia porcellus [6] amounted to 83 mmHg; in the series with Cavia porcellus [7], 77 mmHg; in the series with Cavia porcellus [8], 77 mmHg.
As for `N=C(N)NCC(O)c1ccc2c(c1)OCO2` (stereo not given), the result in the series filed under Cavia porcellus [1], with Cavia porcellus [2], with Cavia porcellus [3] and with Cavia porcellus [4] was inactive.
For `CC(C)NCC(O)c1ccc2c(c1)OCO2.Cl` (stereo not given), the pA2 in series [5] amounted to 6.2. Further, the Activity came to 25% in the series on Cavia porcellus [10], 97 mmHg in the series on Cavia porcellus [6], 84 mmHg with Cavia porcellus [7] and 87 mmHg in the series with Cavia porcellus [8].
With `CC(C)NCC(O)COC(=O)c1ccc2c(c1)OCO2.Cl` (stereo not given), in series [5], the pA2 amounted to 6.9. The outcome in the series on Cavia porcellus [2], in the series with Cavia porcellus [3] and in the series with Cavia porcellus [4] was inactive.
For the molecule `CC(C)(C)NCC(O)COC(=O)c1ccc2c(c1)OCO2.Cl` (stereo not given), in series [5], the pA2 came to 6.9. Besides, the outcome in the series on Cavia porcellus [2], with Cavia porcellus [3] and with Cavia porcellus [4] was inactive.

A word on the pA2: it is a measure of antagonist potency on a negative log scale.
